Laboratory results published in patent EP3228306A1, “COMPLEX COMPOUND COMPRISING OBETICHOLIC ACID AND CYCLODEXTRIN AND PHARMACEUTICAL FORMULATION COMPRISING THE COMPLEX COMPOUND” (ratiopharm GmbH, priority 2016, dated 2017).
Converted amounts (≈) assume the structure as drawn. Like-named read-outs stand apart in the source and are kept apart here.

Assays:
[1] = Solubility of OCA in concentrated aqueous CD solutions (Experiment 2); format: physicochemical; details: stirred 60 h
Method: Variable amounts of solid OCA (left column of the Tables given below) were stirred in aqueous CD-solutions (14% (w/w) α-CD, 1.8% β-CD, 20% γ-CD, 20% HP-β-CD, 30% SB-β-CD, 30% RM-β-CD, and 40% HP-γ-CD) for 60 h. Aliquots were filtered through 0.2 µm disposable PTFE filters and the filtrates were analyzed by HPLC/UV. The concentration of OCA was determined based on a calibration curve which was established by twofold analysis of five calibration standards with 0.01 mg/mL to 1.0 mg/mL OCA.

[2] = Solubility of OCA:CD complexes in physiologically relevant media; format: physicochemical; details: thermodynamic from solid, 37°C, complex corresponding to 20 mg obeticholic acid in 2 mL
Method: Obeticholic acid (OCA) or OCA: Cyclodextrin (CD) complex was weighed into a glass vial, followed by addition of 1 or 2 ml solvent (water, 0.01 N HCl, phosphate buffer pH 6.8 and FaSSIF). A stirring bar was added, the vial was fixed in a block heater at 37°C and the suspension was stirred with approx. 250 rpm. After 15 min and 1 h, samples were withdrawn, filtered through a 0.2 µm disposable filter, 100 µl of the clear filtrate were diluted with 900 µl acetonitrile (ACN):Water (1:1) and 1 µl thereof were analyzed by UHPLC/UV.
Solubilities of OCA:CD complexes were determined by stirring an amount of complex which corresponds to 20 mg of obeticholic acid (calculated from the known drug loads) in 2 mL of solvent for 15 min and 60 min at 37°C according to the method described above under "Analytical Methods". Solubility values are given in mg/ml.

[3] = cited from earlier work
[4] = reported in WO 2013/192097; measured in 0.1 N HCl after equilibration under stirring for one week at 25°C; cited from earlier work

## CC[C@H]1[C@@H](O)[C@@H]2[C@H](CC[C@]3(C)[C@@H]([C@H](C)CCC(=O)O)CC[C@@H]23)[C@@]2(C)CC[C@@H](O)C[C@@H]12 [OCA, 6α-ethyl-chenodeoxycholic acid]
[1]; HP-β-CD (20%) aqueous solution, OCA 10 mg/mL weighed
  dissolved OCA: 9.425 mg/mL
[1]; HP-β-CD (20%) aqueous solution, OCA 20 mg/mL weighed
  dissolved OCA: 18.716 mg/mL
[1]; HP-β-CD (20%) aqueous solution, OCA 40 mg/mL weighed
  dissolved OCA: 37.499 mg/mL
[1]; HP-β-CD (20%) aqueous solution, OCA 50 mg/mL weighed
  dissolved OCA: 45.473 mg/mL
[1]; HP-β-CD (20%) aqueous solution, OCA 60 mg/mL weighed
  dissolved OCA: 45.785 mg/mL
[1]; HP-γ-CD (40%) aqueous solution, OCA 10 mg/mL weighed
  dissolved OCA: 8.704 mg/mL
[1]; HP-γ-CD (40%) aqueous solution, OCA 20 mg/mL weighed
  dissolved OCA: 18.095 mg/mL
[1]; HP-γ-CD (40%) aqueous solution, OCA 40 mg/mL weighed
  dissolved OCA: 35.632 mg/mL
[1]; HP-γ-CD (40%) aqueous solution, OCA 80 mg/mL weighed
  dissolved OCA: 62.989 mg/mL
[1]; RM-β-CD (30%) aqueous solution, OCA 20 mg/mL weighed
  dissolved OCA: 17.374 mg/mL
[1]; RM-β-CD (30%) aqueous solution, OCA 40 mg/mL weighed
  dissolved OCA: 37.316 mg/mL
[1]; RM-β-CD (30%) aqueous solution, OCA 80 mg/mL weighed
  dissolved OCA: 63.629 mg/mL
[1]; RM-β-CD (30%) aqueous solution, OCA 160 mg/mL weighed
  dissolved OCA: 78.693 mg/mL
[1]; SB-β-CD (30%) aqueous solution, OCA 20 mg/mL weighed
  dissolved OCA: 17.545 mg/mL
[1]; SB-β-CD (30%) aqueous solution, OCA 40 mg/mL weighed
  dissolved OCA: 38.735 mg/mL
[1]; SB-β-CD (30%) aqueous solution, OCA 80 mg/mL weighed
  dissolved OCA: 60.767 mg/mL
[1]; SB-β-CD (30%) aqueous solution, OCA 160 mg/mL weighed
  dissolved OCA: 57.080 mg/mL
[1]; α-CD (14%) aqueous solution, OCA 5 mg/mL weighed
  dissolved OCA: 4.614 mg/mL
[1]; α-CD (14%) aqueous solution, OCA 10 mg/mL weighed
  dissolved OCA: 6.154 mg/mL
[1]; α-CD (14%) aqueous solution, OCA 20 mg/mL weighed
  dissolved OCA: 6.937 mg/mL
[1]; α-CD (14%) aqueous solution, OCA 40 mg/mL weighed
  dissolved OCA: 7.141 mg/mL
[1]; β-CD (1.8%) aqueous solution, OCA 2.5 mg/mL weighed
  dissolved OCA: 2.229 mg/mL
[1]; β-CD (1.8%) aqueous solution, OCA 5 mg/mL weighed
  dissolved OCA: 4.312 mg/mL
[1]; β-CD (1.8%) aqueous solution, OCA 10 mg/mL weighed
  dissolved OCA: 4.830 mg/mL
[1]; β-CD (1.8%) aqueous solution, OCA 20 mg/mL weighed
  dissolved OCA: 4.880 mg/mL
[1]; γ-CD (20%) aqueous solution, OCA 5 mg/mL weighed
  dissolved OCA: 0.069 mg/mL
[1]; γ-CD (20%) aqueous solution, OCA 10 mg/mL weighed
  dissolved OCA: 0.069 mg/mL
[1]; γ-CD (20%) aqueous solution, OCA 20 mg/mL weighed
  dissolved OCA: 0.066 mg/mL
[1]; γ-CD (20%) aqueous solution, OCA 40 mg/mL weighed
  dissolved OCA: 0.055 mg/mL
[2]; 0.01 N HCl, pH 2.2, simulated gastric fluid, read-out: Solubility, 0.01 N HCl (pH 2.2), 15 min
  solubility at 15 min: < 10 µg/mL
[2]; 0.01 N HCl, pH 2.2, simulated gastric fluid, read-out: Solubility, 0.01 N HCl (pH 2.2), 60 min
  solubility at 60 min: < 10 µg/mL
[2]; 50 mM KH2PO4 phosphate buffer, pH 6.5, aqueous buffer, read-out: Solubility, 50 mM KH2PO4 (pH 6.5), 15 min
  solubility at 15 min: 110 µg/mL (≈ 262 µM)
[2]; 50 mM KH2PO4 phosphate buffer, pH 6.5, aqueous buffer, read-out: Solubility, 50 mM KH2PO4 (pH 6.5), 60 min
  solubility at 60 min: 110 µg/mL (≈ 262 µM)
[2]; FaSSIF, pH 6.5, fassif, Fasted State Simulated Intestinal Fluid, read-out: Solubility, FassiF* (pH 6.5), 15 min
  solubility at 15 min: 520 µg/mL (≈ 1240 µM)
[2]; FaSSIF, pH 6.5, fassif, Fasted State Simulated Intestinal Fluid, read-out: Solubility, FassiF* (pH 6.5), 60 min
  solubility at 60 min: 420 µg/mL (≈ 998 µM)
[2]; water, pH 7, water, read-out: Solubility, Water (pH 7), 15 min
  solubility at 15 min: < 10 µg/mL
[2]; water, pH 7, water, read-out: Solubility, Water (pH 7), 60 min
  solubility at 60 min: < 10 µg/mL
[3]
  thermodynamic pKa: about 5
[4]
  water solubility: 7.5 µg/mL (≈ 17.8 µM)
